Experimental data: patent US20190284129A1, “LIPID COMPOUNDS AND COMPOSITIONS AND THEIR OPTHALMIC USE” (BIOZEP AS, priority 2015, published 2019)
pEC50: −log10 of the molar value.

Legend:
Format in all cases: cell-based
[1] = biological target: T1, human PPARbeta/delta (Homo sapiens, UniProt Q03181); assay: cellular GAL4 reporter gene assay, agonist mode, PPARbeta/delta
T1 construct: expressed in transfected cells; host or cells: HEK293 (DSMZ ACC 305)
T1 sequence (Q03181 211-439 limits assumed): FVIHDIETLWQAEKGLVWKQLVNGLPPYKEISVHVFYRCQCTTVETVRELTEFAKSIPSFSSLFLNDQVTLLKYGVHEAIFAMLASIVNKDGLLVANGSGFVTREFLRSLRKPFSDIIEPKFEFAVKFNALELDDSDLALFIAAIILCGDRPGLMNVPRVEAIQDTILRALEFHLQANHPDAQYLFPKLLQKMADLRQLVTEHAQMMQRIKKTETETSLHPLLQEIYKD
Text: (§1) The assays were done in HEK293 cells (DSMZ ACC 305). The plasmids used in the GAL4 assay system were derivatives of Stratagene's […] plasmids: the reporter plasmid pFR-Luc (containing a synthetic promoter with five tandem repeats of the yeast GAL4 binding sites that control expression of the Photinus pyralis (American firefly) luciferase gene), and pCMV-BD (for fusions of nuclear receptor ligand binding domains to the DNA-binding domain of the yeast protein GAL4). In order to improve experimental accuracy, a second reporter-Renilla reniformis luciferase, driven by a constitutive promoter-was included as an internal control. Using the control reporter (Renilla Luciferase) allowed corrections for variations in experimental handling, e.g. transfection efficacy, cell viability, pipetting errors, cell lysis efficiency and assay efficiency. […] The compounds BIZ-102 and BIZ-103 were tested at the human PPARbeta/delta and PPARgamma receptors using the same cellular GAL4 Reporter gene assays as in Example 6. The assays were run in agonist mode to detect agonistic activities of the tested compounds.

[2] = system: ARPE-19 cells; assay: oxidative stress (tert-butyl hydroperoxide) cytolysis assay in ARPE-19 retinal pigment epithelial cells; conditions: for inhibition of the cytotoxicity induced by t-BHP: BIZ-102 10 μM
Experimental: In order to evaluate the potential of BIZ-101 to protective the eye from oxidative stress damage the compound was tested in a cell based assay. Oxidative stress was induced in an ARPE-19 cell line using tert-butyl hydroperoxide at different concentrations. The cellular viability was kinetically monitored and measured by analysing the plasma membrane integrity based on the incorporation of a non-permeant and fluorescent DNA intercalating agent that selectively stain cytolytic cells with comprised plasma membranes.
(§2) The ARPE-19 cell line was seeded and cultured in DMEM-F12 medium+10% SVF for 24 hrs in a 96 well plate. Cells were pre-treated or not with either fenofibric acid (25 μM) or compound BIZ-101 (10 μM) during this 24 hr period. After 24 hrs, the different concentrations of t-butyl hydroperoxide were added in the presence of a fluorescent DNA intercalating agent for the following monitoring. Live content time-lapse imaging was performed with a sampling rate of 1 image every 2 hr over a 96 hrs period. The number of fluorescent/cytolytic cells were counted and reported during the experiment. The treatment conditions were tested in one experiment session in a triplicate format.
Fenofibric acid was used at 25 μM and was ordered from Sigma Aldrich. The day of the pre-treatment, a 25 mM stock solution of fenofibric acid was prepared in DMSO and diluted in the complete culture medium at 25 μM. 100 μL of this solution or 100 μL of complete culture medium+0.1% DMSO replaced the 100 μL of the complete culture medium already present in the well. The day of the treatment with t-butyl hydroperoxide, a 2 times concentrated solution of fenofibric acid was freshly diluted in the complete culture medium and 50 μL of this solution or 50 μL of complete culture medium+0.2% DMSO were added to the 100 μL of the culture medium already present in the well.
Compound BIZ-101 was tested at a final concentration of 10 μM. A 10 mM predilution was prepared in DMSO from a 10 mM stock solution. The 10 mM solution of BIZ 101 was diluted in the complete culture medium at 10 μM. 100 μL, of this solution or 100 μL of the complete culture medium+0.1% DMSO replaced the 100 μL, of the complete culture medium already present in the well. The day of the treatment with t-butyl hydroperoxide, a 2 times concentrated solution of BIZ 101 was freshly diluted in the complete culture medium and 50 μL of this solution or 50 μL of complete culture medium+0.2% DMSO were added to the 100 μL of the culture medium already present in the well.
Preparation of the tert-butyl hydroperoxide [tBHP] solution: 0, 0.01 mM, 0.03 mM, 0.1 mM, 0.3 mM, 1 mM, 3 mM and 10 mM. A 4 times concentrated solution of tBHP was freshly diluted in the complete culture medium for each of the concentrations to be tested. 50 μL of the 4 times concentrated solution was added to the 150 μL of the cultured medium.
In order to evaluate the potential of BIZ-102 to protect the eye from oxidative stress damage the compound was tested in a cell based assay similar to Example 24 with the following changes. The oxidative stress in the ARPE-19 cell line was induced by using 3 different concentrations of tBHP: 10 μM, 30 μM and 100 μM and BIZ-102 was tested in 2 different concentrations: 1 μM and 10 μM.
as §2, with “with” for “with either fenofibric acid (25 μM) or”, “BIZ-102 (1 μM and 10” for “BIZ-101 (10”
Compound BIZ-102 was tested at a final concentration of 1 and 10 μM. […]

[3] = biological target: T2, human PPARgamma (Homo sapiens, UniProt P37231); assay: cellular GAL4 reporter gene assay, agonist mode, PPARgamma
T2 construct: expressed in transfected cells; host or cells: HEK293 (DSMZ ACC 305)
T2 sequence (P37231 238-503 limits assumed): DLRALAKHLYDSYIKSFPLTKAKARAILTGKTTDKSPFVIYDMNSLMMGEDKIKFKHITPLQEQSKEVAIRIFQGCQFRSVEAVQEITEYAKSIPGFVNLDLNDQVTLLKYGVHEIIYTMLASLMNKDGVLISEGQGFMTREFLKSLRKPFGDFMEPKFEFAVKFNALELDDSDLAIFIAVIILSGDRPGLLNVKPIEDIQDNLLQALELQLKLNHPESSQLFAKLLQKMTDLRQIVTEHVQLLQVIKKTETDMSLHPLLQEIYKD
Text: as §1

- pEC50 [1]: 5.37
- PPARbeta/delta efficacy vs. GW501516 [1]: 20%
- pEC50 [3]: 5.82
- PPARgamma efficacy vs. Rosiglitazone [3]: 23%
Structure (SMILES): CCCCC/C=C\C/C=C\C/C=C\C/C=C\CCC(CC)C(=O)O (stereo not shown) [BIZ-102, (All-Z) 2-ethyl-5,8,11,14-eicosatetraenoic Acid]
- inhibition of the cytotoxicity induced by t-BHP ([2]; 10 μM t-BHP, FIG. 9A): significant inhibition
- inhibition of the cytotoxicity induced by t-BHP ([2]; 30 μM t-BHP, FIG. 9B): significant inhibition
- effect on retinal pigment epithelial cells during conditions of oxidative stress ([2]; overall conclusion): protective effect
